Data reported in US6113896A, “Pharmaceutical compositions containing ecotin and homologs thereof” (priority 1994, dated 2000).

Columns and labels:
human plasma kallikrein = assay: Equilibrium inhibition constant with plasma kallikrein; assay type: biochemical
Protocol: Determination of Equilibrium Inhibition Constants Apparent Ki values (Ki *) for the inhibition of the enzymes tested by ecotin and mutants were measured as follows. All reactions were performed at 25° C. Stock solutions of trypsin were quantitated by active site burst titration with MUGB as previously described (Jameson, G. W. et al., Biochem. J. 131:107-117 [1973]) using a Fluoroskan II plate reader at excitation wavelength of 355 nm and emission wavelength of 460 nm. Data was collected on a Macintosh SE20 using either Delta Soft II Fl v3.31 software (BioMetallics). Active site titrated trypsin was then used to quantitate ecotin active sites using BAPA as the substrate; a stoichiometry of 1:1 was assumed (Chung, C. H. et al., supra). Factor Xa, Factor XIIa, plasma kallikrein, or HLE were then quantitated by active site titration using ecotin as a standard, again assuming 1:1 stoichiometry. In addition, the concentration of HLE was quantitated by methods previously described using a calibrated stock of α1 -proteinase inhibitor to titrate the HLE active sites (Beatty, K. et al., J. Biol. Chem. 255:3931-3934 [1980]); the same HLE active site concentration was determined using both ecotin and α1 -proteinase inhibitor. […]

FXa = FXa association rate constant; assay type: biochemical, human
Protocol: Determination of FXa association rate constants The association rate of ecotin with FXa was determined as follows. At reference time zero, ecotin (7 nM final concentration) was added to FXa (5 nM final concentration) and TNCT buffer in a total volume of 3.0 ml. Immediately thereafter, 150 μl aliquots were removed at intervals over a period of 10 min and added to microtiter wells containing 50 μl 5 mM Spectrozyme fXa. The absorbance of the wells was monitored at 405 nm. Initial rates were determined for each well using the initial linear portion of each data set. The concentration of free enzyme versus time was plotted and the curves fitted to equation 4; values for kon were determined by nonlinear regression analysis.
The rate of association of a reversible inhibitor with enzyme is given by equation 2: [formula] Since measurements were made during the initial phase of the reaction, where dissociation of the E·I complex is negligible, the second term of equation 2 can be ignored. Therefore the rate of association is given by equation 3: [formula] […] The association rate constant for ecotin with FXa was determined by measuring free enzyme as a function of time and fitting the data to equation (4) by nonlinear regression analysis. A value for kon =(1.35±0.08)×10^6 M^-1 s^-1 was calculated for ecotin with FXa (FIG. 4A); kon values for ecotin mutants are shown in Table I.

normal human plasma [1] = assay: Prothrombin time (PT) clotting assay; assay type: biochemical; conditions: initiation by TF
Protocol: Coagulation assays and Prolongation of Clotting Times Clotting times were performed using the ACL 300 Research Coagulation Analyzer. For the prothrombin time (PT) assays, the incubation time was set at 120 sec and acquisition time at 120 to 600 sec depending on the expected outcome of the assay. Membranes from 293 cells expressing TF (Paborsky, L. R. et al., Biochemistry 28:8072-8077 [1989]) were premixed with CaCl2. The sample (plasma and inhibitor) and reagent (CaCl2 /TF) were automatically mixed together after a 2 min incubation at 37° C. The clotting time was determined by optical assessment. The total incubation time of inhibitor with plasma before addition of CaCl2 /TF was ~5 min. Final concentrations were 78 nM to 7.8 μM ecotin, 3.7 nM TF (0.9 μg/ml by protein content), 22.5 mM CaCl2, and 50% plasma in a total volume of 160 μl.

normal human plasma [2] = assay: Activated partial thromboplastin time (APTT) clotting assay; assay type: biochemical; conditions: ellagic acid
Protocol: For the activated partial thromboplastin time (APTT) assays, the activation time was set at 120 sec and acquisition time at 300 to 600 sec depending on the expected outcome of the assay. Citrated normal human plasma and inhibitor were incubated together. The sample (plasma and inhibitor) and activator (Instrumentation Laboratories Ellagic acid/Phospholipid mix Test Reagent) were automatically pipetted and incubated together for 2 min at 37° C., then CaCl2 was added and clotting time determined by means of optical assessment. The total incubation time of inhibitor with plasma was ca. 3 min before addition of activator, and 5 min before addition of CaCl2. Final concentrations were 0.57 nM to 5.7 μM ecotin, 15.3 ug protein/ml 293 cell membranes, 8.3 uM ellagic acid, 8.3 mM CaCl2, and 33.3% plasma in a total volume of 162 μl.

Question: How did the Ki (human plasma kallikrein; plasma kallikrein=1.3 nM) turn out when “Ecotin: E. coli periplasmic protein having the 142 amino acid residue sequence reported by McGrath et al.; recombinant, P1 Met84” was run?
Answer: 0.175 ± 0.02 nM

Question: And the Ki (human plasma kallikrein; plasma kallikrein=4.3 nM)?
Answer: 0.151 ± 0.02 nM

Question: And the “time for complete inhibition of FXa” value (FXa; ca. 500 nM ecotin, maximum FXa concentration in blood ca. 200 nM)?
Answer: approximately 7.4 sec

Question: What about the “association rate constant (kon) with FXa” value (FXa; full power of ten printed) of the same substance?
Answer: 1.35e+06 M⁻¹ s⁻¹

Question: What about the “concentration causing 10-fold prolongation of clotting time, PT” value (normal human plasma [1]) of the same substance?
Answer: ~2 μM

Question: What about the “concentration causing 10-fold prolongation of clotting time, PT” value (normal human plasma [1]; listed as Wild type ecotin) of the same substance?
Answer: ~ 2 μM

Question: What about the “concentration causing 10-fold prolongation of clotting time, APTT” value (normal human plasma [2]) of the same substance?
Answer: ~0.3 μM

Question: And the “concentration causing 10-fold prolongation of clotting time, APTT” value (normal human plasma [2]; listed as Wild type ecotin)?
Answer: ~ 0.3 μM
